# Measurements taken from paper PMC9005681, “Use of AD Informer Set compounds to explore validity of novel targets in Alzheimer's disease pathology” (Alzheimer's & Dementia : Translational Research & Clinical …, 2022).
# “And” between values parts separate entries of the source, which are not always exact repeats. Equal entries are not always repeated.
# Tests used:
# [1] = biological target: T1, cloned human or rodent CNS receptors, channels, and transporters (PDSP panel) (Homo sapiens, UniProt P23975); experiment: PDSP GPCR panel primary binding assays at 10 μM; settings: primary assay
# T1 construct: expressed in transfected cells
# Description: (§1) GPCR panel: Screening against the receptors within the PDSP panel offers an assessment of off-target pharmacological activity at cloned human or rodent CNS receptors, channels, and transporters that could confound CNS-related phenotypes. A total of 46–47 primary binding assays were run in quadruplicate on these compounds at 10 μM, with follow-up secondary binding assays in 11-point dose-response in triplicate for select compounds versus select receptors. Secondary binding assays were executed for all receptors where test compound displaced an average of >50% of radio-labeled standard ligand. As an exception, no secondary assays were carried out for H3, PBR, or GABAA. […]
# [2] = biological target: T2, cloned human or rodent CNS receptors, channels, and transporters (PDSP panel) (Homo sapiens, UniProt P46098); experiment: PDSP GPCR panel primary binding assays at 10 μM; settings: primary assay
# T2 construct: expressed in transfected cells
# T2 sequence (P46098 24-478): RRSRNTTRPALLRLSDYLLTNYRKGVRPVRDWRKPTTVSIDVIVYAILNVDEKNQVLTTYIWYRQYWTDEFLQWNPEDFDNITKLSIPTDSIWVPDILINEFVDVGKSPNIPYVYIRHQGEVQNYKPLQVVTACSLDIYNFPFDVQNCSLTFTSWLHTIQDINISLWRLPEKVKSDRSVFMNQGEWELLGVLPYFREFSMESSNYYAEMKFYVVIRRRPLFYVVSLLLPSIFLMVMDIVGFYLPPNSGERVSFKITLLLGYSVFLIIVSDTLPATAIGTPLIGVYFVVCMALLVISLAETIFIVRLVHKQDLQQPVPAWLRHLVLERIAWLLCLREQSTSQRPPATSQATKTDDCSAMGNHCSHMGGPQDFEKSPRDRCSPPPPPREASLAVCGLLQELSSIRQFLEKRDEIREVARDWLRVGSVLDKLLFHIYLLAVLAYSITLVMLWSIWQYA
# Description: as §1
# [3] = biological target: T3, cloned human or rodent CNS receptors, channels, and transporters (PDSP panel) (Homo sapiens, UniProt P25021); experiment: PDSP GPCR panel primary binding assays at 10 μM; settings: primary assay
# T3 construct: expressed in transfected cells
# Description: as §1
# [4] = biological target: T4, cloned human or rodent CNS receptors, channels, and transporters (PDSP panel) (Homo sapiens, UniProt P47898); experiment: PDSP GPCR panel primary binding assays at 10 μM; settings: primary assay
# T4 construct: expressed in transfected cells
# Description: as §1
# [5] = biological target: T5, cloned human or rodent CNS receptors, channels, and transporters (PDSP panel) (Homo sapiens, UniProt P21728); experiment: PDSP GPCR panel primary binding assays at 10 μM; settings: primary assay
# T5 construct: expressed in transfected cells
# Description: as §1
# [6] = biological target: T6, cloned human or rodent CNS receptors, channels, and transporters (PDSP panel) (Homo sapiens, UniProt P41595); experiment: PDSP GPCR panel primary binding assays at 10 μM; settings: primary assay
# T6 construct: expressed in transfected cells
# Description: as §1
# [7] = biological target: T7, cloned human or rodent CNS receptors, channels, and transporters (PDSP panel) (Homo sapiens, UniProt P28221); experiment: PDSP GPCR panel primary binding assays at 10 μM; settings: primary assay
# T7 construct: expressed in transfected cells
# Description: as §1
# [8] = biological target: T8, cloned human or rodent CNS receptors, channels, and transporters (PDSP panel) (Homo sapiens, UniProt P08172); experiment: PDSP GPCR panel primary binding assays at 10 μM; settings: primary assay
# T8 construct: expressed in transfected cells
# T8 sequence (P08172 1-466): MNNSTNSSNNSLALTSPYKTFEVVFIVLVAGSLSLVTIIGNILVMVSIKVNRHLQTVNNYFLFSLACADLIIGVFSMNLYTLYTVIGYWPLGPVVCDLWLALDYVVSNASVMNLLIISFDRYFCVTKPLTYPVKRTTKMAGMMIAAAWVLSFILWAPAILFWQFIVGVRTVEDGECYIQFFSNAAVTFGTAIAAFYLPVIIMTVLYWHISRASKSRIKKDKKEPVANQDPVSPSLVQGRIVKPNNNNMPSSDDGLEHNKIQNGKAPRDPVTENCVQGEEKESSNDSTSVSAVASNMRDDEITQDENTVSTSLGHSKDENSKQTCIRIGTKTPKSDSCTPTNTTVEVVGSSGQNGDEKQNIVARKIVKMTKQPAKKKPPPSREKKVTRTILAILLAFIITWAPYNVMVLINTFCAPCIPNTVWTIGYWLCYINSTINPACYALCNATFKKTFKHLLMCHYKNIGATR
# Description: as §1
# [9] = biological target: T9, cloned human or rodent CNS receptors, channels, and transporters (PDSP panel) (Homo sapiens, UniProt P34969); experiment: PDSP GPCR panel primary binding assays at 10 μM; settings: primary assay
# T9 construct: expressed in transfected cells
# Description: as §1
# [10] = biological target: T10, cloned human or rodent CNS receptors, channels, and transporters (PDSP panel) (Homo sapiens, UniProt P35372); experiment: PDSP GPCR panel primary binding assays at 10 μM; settings: primary assay
# T10 construct: expressed in transfected cells
# Description: as §1
# [11] = aqueous, neutral pH (7.4); cited from earlier work
# cellular system = tested on: cellular system; set-up: method as in column References for potency and dosing (the 5th table c13); settings: published data; References for potency and dosing; cited from earlier work
# T9 sequence (P34969 whole entry): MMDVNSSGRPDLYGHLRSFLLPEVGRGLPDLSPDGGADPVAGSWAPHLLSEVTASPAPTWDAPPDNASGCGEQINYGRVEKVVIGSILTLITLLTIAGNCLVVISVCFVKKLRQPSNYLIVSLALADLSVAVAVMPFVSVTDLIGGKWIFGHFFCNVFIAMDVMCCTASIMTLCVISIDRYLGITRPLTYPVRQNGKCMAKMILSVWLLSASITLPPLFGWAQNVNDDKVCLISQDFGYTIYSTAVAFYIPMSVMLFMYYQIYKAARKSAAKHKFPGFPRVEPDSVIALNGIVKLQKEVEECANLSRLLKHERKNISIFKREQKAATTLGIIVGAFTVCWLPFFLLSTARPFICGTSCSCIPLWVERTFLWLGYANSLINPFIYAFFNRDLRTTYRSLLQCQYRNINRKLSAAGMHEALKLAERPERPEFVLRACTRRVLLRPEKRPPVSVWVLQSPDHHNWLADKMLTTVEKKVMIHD
# T4 sequence (P47898 whole entry): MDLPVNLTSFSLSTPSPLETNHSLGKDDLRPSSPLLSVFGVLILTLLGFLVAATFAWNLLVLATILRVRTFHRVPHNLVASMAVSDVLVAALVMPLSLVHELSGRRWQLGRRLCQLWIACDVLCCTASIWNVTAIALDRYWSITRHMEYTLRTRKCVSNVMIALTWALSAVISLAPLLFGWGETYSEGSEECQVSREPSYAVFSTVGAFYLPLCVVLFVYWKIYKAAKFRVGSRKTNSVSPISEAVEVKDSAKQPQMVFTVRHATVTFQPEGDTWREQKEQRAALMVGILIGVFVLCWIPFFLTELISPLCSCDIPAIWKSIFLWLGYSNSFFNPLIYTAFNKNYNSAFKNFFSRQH
# T1 sequence (P23975 whole entry): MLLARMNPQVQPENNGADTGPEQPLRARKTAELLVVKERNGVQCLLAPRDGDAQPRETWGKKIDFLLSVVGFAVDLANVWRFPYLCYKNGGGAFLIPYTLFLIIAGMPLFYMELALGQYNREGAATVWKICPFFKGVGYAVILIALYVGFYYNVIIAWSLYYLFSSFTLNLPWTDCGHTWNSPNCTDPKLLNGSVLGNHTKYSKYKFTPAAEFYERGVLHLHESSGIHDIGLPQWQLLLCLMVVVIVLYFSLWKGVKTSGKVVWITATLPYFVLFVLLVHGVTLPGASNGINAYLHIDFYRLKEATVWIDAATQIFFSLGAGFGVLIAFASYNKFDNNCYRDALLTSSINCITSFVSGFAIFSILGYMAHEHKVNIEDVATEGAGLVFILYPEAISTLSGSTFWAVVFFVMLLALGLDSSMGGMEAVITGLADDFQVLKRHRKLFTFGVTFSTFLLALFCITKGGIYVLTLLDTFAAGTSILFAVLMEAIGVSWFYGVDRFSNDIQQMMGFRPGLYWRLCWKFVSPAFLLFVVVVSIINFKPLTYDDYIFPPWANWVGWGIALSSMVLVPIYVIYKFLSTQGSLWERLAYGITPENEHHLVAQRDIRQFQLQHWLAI
# T5 sequence (P21728 whole entry): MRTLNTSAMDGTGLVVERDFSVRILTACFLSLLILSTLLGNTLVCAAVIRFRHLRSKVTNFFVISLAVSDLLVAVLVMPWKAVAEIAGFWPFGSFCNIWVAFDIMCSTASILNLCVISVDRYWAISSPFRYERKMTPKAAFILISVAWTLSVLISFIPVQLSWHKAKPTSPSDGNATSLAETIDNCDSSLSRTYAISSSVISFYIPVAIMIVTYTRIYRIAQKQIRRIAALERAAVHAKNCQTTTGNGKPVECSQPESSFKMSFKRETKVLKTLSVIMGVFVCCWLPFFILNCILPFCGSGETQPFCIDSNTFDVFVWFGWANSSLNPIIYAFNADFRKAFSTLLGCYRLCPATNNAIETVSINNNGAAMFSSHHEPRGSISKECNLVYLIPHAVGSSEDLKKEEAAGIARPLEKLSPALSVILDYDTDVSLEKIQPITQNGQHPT
# T10 sequence (P35372 whole entry): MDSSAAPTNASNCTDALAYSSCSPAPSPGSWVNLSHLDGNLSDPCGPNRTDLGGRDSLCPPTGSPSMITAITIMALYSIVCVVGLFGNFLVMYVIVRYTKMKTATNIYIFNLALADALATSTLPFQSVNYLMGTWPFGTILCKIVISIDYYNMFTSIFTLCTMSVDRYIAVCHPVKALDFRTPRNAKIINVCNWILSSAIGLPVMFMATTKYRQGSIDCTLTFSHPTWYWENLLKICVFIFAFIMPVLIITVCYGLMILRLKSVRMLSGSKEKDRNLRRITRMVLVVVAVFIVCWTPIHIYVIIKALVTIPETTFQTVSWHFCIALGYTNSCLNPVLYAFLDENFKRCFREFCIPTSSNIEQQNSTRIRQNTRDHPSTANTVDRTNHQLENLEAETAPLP
# T6 sequence (P41595 whole entry): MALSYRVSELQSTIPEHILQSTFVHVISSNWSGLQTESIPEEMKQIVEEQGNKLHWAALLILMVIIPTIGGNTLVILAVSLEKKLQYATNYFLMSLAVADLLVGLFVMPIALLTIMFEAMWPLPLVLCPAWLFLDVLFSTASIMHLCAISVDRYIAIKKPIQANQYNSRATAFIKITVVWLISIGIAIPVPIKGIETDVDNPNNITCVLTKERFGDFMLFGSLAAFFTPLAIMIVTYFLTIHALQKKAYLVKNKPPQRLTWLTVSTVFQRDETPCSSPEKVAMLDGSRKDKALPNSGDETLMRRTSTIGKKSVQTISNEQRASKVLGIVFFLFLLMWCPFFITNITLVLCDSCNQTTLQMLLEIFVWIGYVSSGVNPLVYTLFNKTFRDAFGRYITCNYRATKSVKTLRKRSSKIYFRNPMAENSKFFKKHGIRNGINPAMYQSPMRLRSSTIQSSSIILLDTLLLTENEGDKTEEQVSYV
# T7 sequence (P28221 whole entry): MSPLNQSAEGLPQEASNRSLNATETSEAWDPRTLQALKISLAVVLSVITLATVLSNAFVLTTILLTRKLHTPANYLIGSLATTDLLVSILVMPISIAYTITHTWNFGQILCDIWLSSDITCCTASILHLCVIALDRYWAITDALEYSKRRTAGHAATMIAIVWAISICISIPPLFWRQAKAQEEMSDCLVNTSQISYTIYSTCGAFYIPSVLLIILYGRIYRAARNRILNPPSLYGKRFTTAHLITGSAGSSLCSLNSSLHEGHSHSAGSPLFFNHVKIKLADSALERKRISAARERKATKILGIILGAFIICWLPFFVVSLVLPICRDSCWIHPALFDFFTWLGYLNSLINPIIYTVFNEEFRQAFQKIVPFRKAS
# T3 sequence (P25021 whole entry): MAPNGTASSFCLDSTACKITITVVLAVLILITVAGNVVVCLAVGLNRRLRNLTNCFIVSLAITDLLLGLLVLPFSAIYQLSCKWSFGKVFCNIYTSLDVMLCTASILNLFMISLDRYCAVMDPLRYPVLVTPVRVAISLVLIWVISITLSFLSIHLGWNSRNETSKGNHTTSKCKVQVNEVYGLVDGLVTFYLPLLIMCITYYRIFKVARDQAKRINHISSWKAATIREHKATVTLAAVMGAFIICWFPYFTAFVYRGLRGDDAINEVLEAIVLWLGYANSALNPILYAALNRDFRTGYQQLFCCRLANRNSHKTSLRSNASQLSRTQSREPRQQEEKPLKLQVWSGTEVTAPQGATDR
compound,measurement,setting,value
"CNc1nc(C)nc(N[C@H]2CCC[C@@H](C(=O)NCc3ccc(C#N)cc3C(F)(F)F)C2)n1 [UNC10302679A, GSK2256294A]",Mean %,"[1]; NET, mean inhibition",-0.13% and 6.71%
same,Inhibition 1,"[1]; NET, replicate 1",26.63% and -24.8%
same,Inhibition 2,"[1]; NET, replicate 2",1.57% and -7.07%
same,Inhibition 3,"[1]; NET, replicate 3",-2.48% and 7.39%
same,Inhibition 4,"[1]; NET, replicate 4",-26.22% and 51.32%
same,Mean %,"[2]; 5-HT3, mean inhibition",8.2%
same,Inhibition 1,"[2]; 5-HT3, replicate 1",4.04%
same,Inhibition 2,"[2]; 5-HT3, replicate 2",9.4%
same,Inhibition 3,"[2]; 5-HT3, replicate 3",-1.71%
same,Inhibition 4,"[2]; 5-HT3, replicate 4",21.06%
same,Mean %,"[3]; H2, mean inhibition",-21%
same,Inhibition 1,"[3]; H2, replicate 1",-8.72%
same,Inhibition 2,"[3]; H2, replicate 2",-33.49%
same,Inhibition 3,"[3]; H2, replicate 3",-19.51%
same,Inhibition 4,"[3]; H2, replicate 4",-22.27%
same,Mean %,"[4]; 5-HT5A, mean inhibition",0.62% and -5.72%
same,Inhibition 1,"[4]; 5-HT5A, replicate 1",13.64% and 5.79%
same,Inhibition 2,"[4]; 5-HT5A, replicate 2",-10.06% and -11.12%
same,Inhibition 3,"[4]; 5-HT5A, replicate 3",-4.07% and -16.75%
same,Inhibition 4,"[4]; 5-HT5A, replicate 4",2.96% and -0.78%
same,Mean %,"[5]; D1, mean inhibition",9.96%
same,Inhibition 1,"[5]; D1, replicate 1",12.39%
same,Inhibition 2,"[5]; D1, replicate 2",11.9%
same,Inhibition 3,"[5]; D1, replicate 3",10.77%
same,Inhibition 4,"[5]; D1, replicate 4",4.78%
same,Mean %,"[6]; 5-HT2B, mean inhibition",-22.71%
same,Inhibition 1,"[6]; 5-HT2B, replicate 1",-0.89%
same,Inhibition 2,"[6]; 5-HT2B, replicate 2",-25.64%
same,Inhibition 3,"[6]; 5-HT2B, replicate 3",-26.48%
same,Inhibition 4,"[6]; 5-HT2B, replicate 4",-37.81%
same,Mean %,"[7]; 5-HT1D, mean inhibition",6.14%
same,Inhibition 1,"[7]; 5-HT1D, replicate 1",26.13%
same,Inhibition 2,"[7]; 5-HT1D, replicate 2",1.56%
same,Inhibition 3,"[7]; 5-HT1D, replicate 3",1.56%
same,Inhibition 4,"[7]; 5-HT1D, replicate 4",-4.69%
same,Mean %,"[8]; M2, mean inhibition",-9.25%
same,Inhibition 1,"[8]; M2, replicate 1",-13.73%
same,Inhibition 2,"[8]; M2, replicate 2",-23.07%
same,Inhibition 3,"[8]; M2, replicate 3",-14.72%
same,Inhibition 4,"[8]; M2, replicate 4",14.53%
same,Mean %,"[9]; 5-HT7A, mean inhibition",35.21%
same,Inhibition 1,"[9]; 5-HT7A, replicate 1",10.61%
same,Inhibition 2,"[9]; 5-HT7A, replicate 2",51.06%
same,Inhibition 3,"[9]; 5-HT7A, replicate 3",19.91%
same,Inhibition 4,"[9]; 5-HT7A, replicate 4",59.27%
same,Mean %,"[10]; MOR, mean inhibition",-0.18%
same,Inhibition 1,"[10]; MOR, replicate 1",-0.8%
same,Inhibition 2,"[10]; MOR, replicate 2",0.06%
same,Inhibition 3,"[10]; MOR, replicate 3",1.4%
same,Inhibition 4,"[10]; MOR, replicate 4",-1.38%
same,Kinetic solubility,[11],147.5 µM
same,Reported as cell active (<10 μM),cellular system,Y (Published data supports that the compound is active in a cellular system when dosed at 10 μM (Y/N))
"CCCCNc1ncc2c(-c3ccc(CN4CCN(C)CC4)cc3)cn([C@H]3CC[C@H](O)CC3)c2n1 [UNC2025C, UNC2025]",Inhibition 1,"[1]; Receptor NET, 10 μM",67.05% and 40.06%
same,Inhibition 2,"[1]; Receptor NET, 10 μM",52.92% and 42.04%
same,Inhibition 3,"[1]; Receptor NET, 10 μM",47% and 40.28%
same,Inhibition 4,"[1]; Receptor NET, 10 μM",46.05% and 54.77%
same,Mean %,"[1]; Receptor NET, 10 μM, mean of Inhibition 1-4",53.26% and 44.29%
same,Inhibition 1,"[2]; Receptor 5-HT3, 10 μM",11.35%
same,Inhibition 2,"[2]; Receptor 5-HT3, 10 μM",35.98%
same,Inhibition 3,"[2]; Receptor 5-HT3, 10 μM",21.68%
same,Inhibition 4,"[2]; Receptor 5-HT3, 10 μM",26.58%
same,Mean %,"[2]; Receptor 5-HT3, 10 μM, mean of Inhibition 1-4",23.9%
same,Inhibition 1,"[3]; Receptor H2, 10 μM",36.84%
same,Inhibition 2,"[3]; Receptor H2, 10 μM",35.2%
same,Inhibition 3,"[3]; Receptor H2, 10 μM",22.04%
same,Inhibition 4,"[3]; Receptor H2, 10 μM",12.62%
same,Mean %,"[3]; Receptor H2, 10 μM, mean of Inhibition 1-4",26.68%
same,Inhibition 1,"[4]; Receptor 5-HT5A, 10 μM",24.59%
same,Inhibition 2,"[4]; Receptor 5-HT5A, 10 μM",14.3%
same,Inhibition 3,"[4]; Receptor 5-HT5A, 10 μM",9.95%
same,Inhibition 4,"[4]; Receptor 5-HT5A, 10 μM",29.74%
same,Mean %,"[4]; Receptor 5-HT5A, 10 μM, mean of Inhibition 1-4",19.65%
same,Inhibition 1,"[5]; Receptor D1, 10 μM",18.86%
same,Inhibition 2,"[5]; Receptor D1, 10 μM",-8.82%
same,Inhibition 3,"[5]; Receptor D1, 10 μM",17.73%
same,Inhibition 4,"[5]; Receptor D1, 10 μM",11.41%
same,Mean %,"[5]; Receptor D1, 10 μM, mean of Inhibition 1-4",9.8%
same,Inhibition 1,"[6]; Receptor 5-HT2B, 10 μM",1.21%
same,Inhibition 2,"[6]; Receptor 5-HT2B, 10 μM",8.76%
same,Inhibition 3,"[6]; Receptor 5-HT2B, 10 μM",-7.6%
same,Inhibition 4,"[6]; Receptor 5-HT2B, 10 μM",18.41%
same,Mean %,"[6]; Receptor 5-HT2B, 10 μM, mean of Inhibition 1-4",5.2%
same,Inhibition 1,"[7]; Receptor 5-HT1D, 10 μM",51.95%
same,Inhibition 2,"[7]; Receptor 5-HT1D, 10 μM",44.87%
same,Inhibition 3,"[7]; Receptor 5-HT1D, 10 μM",26.55%
same,Inhibition 4,"[7]; Receptor 5-HT1D, 10 μM",48.2%
same,Mean %,"[7]; Receptor 5-HT1D, 10 μM, mean of Inhibition 1-4",42.89%
same,Inhibition 1,"[8]; Receptor M2, 10 μM",32.43%
same,Inhibition 2,"[8]; Receptor M2, 10 μM",20.76%
same,Inhibition 3,"[8]; Receptor M2, 10 μM",14.93%
same,Inhibition 4,"[8]; Receptor M2, 10 μM",24.5%
same,Mean %,"[8]; Receptor M2, 10 μM, mean of Inhibition 1-4",23.16%
same,Inhibition 1,"[9]; Receptor 5-HT7A, 10 μM",13.62%
same,Inhibition 2,"[9]; Receptor 5-HT7A, 10 μM",-19.4%
same,Inhibition 3,"[9]; Receptor 5-HT7A, 10 μM",-17.29%
same,Inhibition 4,"[9]; Receptor 5-HT7A, 10 μM",-17.42%
same,Mean %,"[9]; Receptor 5-HT7A, 10 μM, mean of Inhibition 1-4",-10.12%
same,Inhibition 1,"[10]; Receptor MOR, 10 μM",9.74%
same,Inhibition 2,"[10]; Receptor MOR, 10 μM",12.91%
same,Inhibition 3,"[10]; Receptor MOR, 10 μM",2.36%
same,Inhibition 4,"[10]; Receptor MOR, 10 μM",6.67%
same,Mean %,"[10]; Receptor MOR, 10 μM, mean of Inhibition 1-4",7.92%
same,Kinetic solubility,[11],43.4 µM
same,Reported as cell active (<10 μM),cellular system,Y (Published data supports that the compound is active in a cellular system when dosed at 10 μM (Y/N))
